{"source": "patent US12673052B2", "about": "“Combinations for the treatment of cancer” (Exelixis, Inc., priority 2020, dated 2026)", "key": {"SNU-5": {"system": "SNU-5", "experiment": "Tumor growth inhibition in xenograft model", "format": "in vivo, CB.17 SCID mice", "method": "Three human tumor cell lines, NCI-H441, MDA-MB-231, and SNU-5, were selected for use in tumor xenograft studies using athymic nude, NSG and CB.17 SCID mice, respectively. Pharmacodynamic modulation of MET phosphorylation was also measured in the NCI-H441 and SNU-5 xenografts. Tumor-bearing mice were orally dosed once-daily for 14 days (qd×14), and the tumors were resected and processed for MET phosphorylation analysis by Western blot. […]"}, "[1]": {"experiment": "Single-dose plasma PK, IV and oral (PEG 400:EtOH:RO water)", "format": "in vivo, dogs", "method": "Plasma PK of Compound 1 was characterized in rats and beagle dogs. Toxicokinetic (TK) evaluations of oral Compound 1 were evaluated in repeat-dose studies in rats and dogs. Plasma protein binding was determined in mouse, rat, dog, monkey, and human plasma in vitro. Biotransformation and metabolite profiling of Compound 1 were investigated in vitro using mouse, rat, dog, monkey, and human liver microsomal fractions and hepatocytes and in vivo in rats and dogs. P-glycoprotein (P-gp) and breast cancer resistance protein (BCRP) transporter interaction studies, in vitro experiments evaluating cytochrome P450 (CYP) induction and inhibition by Compound 1, and CYP and glucuronosyltransferase (UGT) substrate specificity studies of Compound 1 were also performed.\nThe PK and TK of Compound 1 were assessed in rats and dogs after intravenous (IV; only single dose PK) and oral (PO) administration of Compound 1 in formulations prepared in polyethylene glycol 400 (PEG 400): ethanol (EtOH): reverse osmosis water (RO Water) (45:5:50 v/v/v).\nMedian time to maximum plasma concentration (Tmax) occurred at approximately 2-3 hours in rats and dogs.\n(§1) The mean plasma t1/2, z values were approximately 9 hours in rats and 4 hours in dogs. Interspecies scaling based on body weight to predict PK parameters in humans could not be performed because dogs (larger species) cleared Compound 1 faster than rats (smaller species). Therefore, the human PK was projected based on one species (rat). […] This apparent clearance value (CL/F) was used to predict steady-state exposure (AUC and average plasma concentration [Cavg]) in humans for the proposed first-in-human (FIH) starting dose for Study Compound 1-001."}, "[2]": {"experiment": "Toxicokinetics in 28-day repeat-dose toxicity study", "format": "in vivo, dogs", "details": "for half-life: oral", "method": "In a 28-day repeat-dose toxicity study in dogs dosed orally daily with Compound 1 at 2, 6 and 18 mg/kg, high variability in Compound 1 exposure was generally observed for all dose levels on Days 1 and 28. Across the dose range evaluated, the mean % CV for Cmax and AUC0-24 was 46.2-93.2% and 45.5-91%, respectively, on Day 1 and 39.3-53.9% and 36.2-51.1%, respectively, on Day 28."}, "CYP2C9": {"system": "CYP2C9", "experiment": "Cytochrome P450 induction (mRNA levels) in fresh primary human hepatocytes", "format": "in vitro ADME"}, "[3]": {"experiment": "Projection of human PK and steady-state exposure based on one species (rat)", "method": "as §1\nThe steady-state exposure of Compound 1 in humans for the proposed clinical starting dose of 10 mg daily was projected. At this dose, Compound 1 is projected to yield exposures 54-fold lower than those at the highest non-severely toxic dose (HNSTD) in rats (10 mg/kg qd), the highest dose tested in the GLP 4-week toxicity study. […] Compound 1-related findings at the 10 mg/kg/day dose included bile duct inflammation, hyperplasia and individual hepatocyte necrosis (generally minimal-mild) which were fully reversible following 14 days recovery, as were correlative <2-fold aspartate aminotransferase (AST) and <5-fold alanine aminotransferase (ALT) increases."}, "[4]": {"system": "primary human macrophages", "experiment": "Macrophage re-polarization: primary CD14+ monocytes cultured in M2 polarizing conditions", "format": "cell-based", "details": "donor (A, H, L, D, B), Donor A and B n = 1", "method": "The TAM RTKs play an important role in balancing the functions of M1 and M2 macrophage subsets. Compound 1 was tested for inhibition against primary CD14+ monocytes cultured in M2 polarizing conditions. A dose dependent polarization of the monocytes to pro-inflammatory M1 macrophages across cells from all tested donors was observed (Table 4)."}, "MET": {"biological_target": "MET (Homo sapiens, UniProt P08581)", "sequence (P08581 25-1390)": "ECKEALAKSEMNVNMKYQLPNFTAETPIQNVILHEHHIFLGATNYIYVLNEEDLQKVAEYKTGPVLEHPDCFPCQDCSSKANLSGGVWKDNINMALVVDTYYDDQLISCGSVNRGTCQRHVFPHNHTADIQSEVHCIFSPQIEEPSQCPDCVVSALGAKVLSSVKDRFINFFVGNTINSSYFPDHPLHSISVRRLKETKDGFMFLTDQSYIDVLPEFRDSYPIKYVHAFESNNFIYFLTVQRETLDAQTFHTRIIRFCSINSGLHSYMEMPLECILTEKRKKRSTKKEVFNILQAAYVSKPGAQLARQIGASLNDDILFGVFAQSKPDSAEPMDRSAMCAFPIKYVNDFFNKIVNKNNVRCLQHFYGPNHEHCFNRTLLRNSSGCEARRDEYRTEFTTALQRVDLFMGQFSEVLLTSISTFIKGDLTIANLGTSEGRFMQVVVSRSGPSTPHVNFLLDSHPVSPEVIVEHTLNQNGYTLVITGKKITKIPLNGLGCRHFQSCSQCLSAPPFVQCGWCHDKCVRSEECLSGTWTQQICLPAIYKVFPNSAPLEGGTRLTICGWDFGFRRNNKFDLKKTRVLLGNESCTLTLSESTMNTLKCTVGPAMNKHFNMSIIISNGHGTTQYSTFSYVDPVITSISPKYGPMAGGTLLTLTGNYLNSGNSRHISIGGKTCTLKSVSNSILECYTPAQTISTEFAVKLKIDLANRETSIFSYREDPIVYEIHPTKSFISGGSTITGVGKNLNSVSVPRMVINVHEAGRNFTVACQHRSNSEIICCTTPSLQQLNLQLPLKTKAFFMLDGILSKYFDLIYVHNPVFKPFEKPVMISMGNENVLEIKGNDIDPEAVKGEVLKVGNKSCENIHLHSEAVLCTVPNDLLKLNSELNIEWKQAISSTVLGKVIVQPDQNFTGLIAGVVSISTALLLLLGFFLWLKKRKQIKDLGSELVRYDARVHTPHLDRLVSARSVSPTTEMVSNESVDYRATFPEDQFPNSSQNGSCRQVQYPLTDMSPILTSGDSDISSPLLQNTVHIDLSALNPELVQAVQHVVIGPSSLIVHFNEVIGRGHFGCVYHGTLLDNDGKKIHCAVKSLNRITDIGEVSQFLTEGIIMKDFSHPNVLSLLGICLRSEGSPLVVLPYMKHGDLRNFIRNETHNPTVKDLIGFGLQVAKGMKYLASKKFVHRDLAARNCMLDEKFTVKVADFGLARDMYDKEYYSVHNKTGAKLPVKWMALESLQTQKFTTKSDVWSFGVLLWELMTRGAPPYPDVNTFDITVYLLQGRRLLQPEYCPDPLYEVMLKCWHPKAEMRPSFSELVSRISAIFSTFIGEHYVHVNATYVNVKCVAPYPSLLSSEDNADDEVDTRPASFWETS", "experiment": "RTK autophosphorylation ELISA, PC-3 cells stimulated with HGF", "format": "cell-based", "parameters": "cell lines (PC-3, HUVEC, and A-172) stimulated with ligands to their respective receptors to induce autophosphorylation (MET, VEGFR2, and AXL); endogenous in cells; host or cells: PC-3", "details": "MET (PC-3), ligand HGF; read-out: Cellular IC50", "method": "(§2) The activity of Compound 1 was evaluated in cell-based assays that assessed the mechanistic effects of the compound in tumor and normal cells. Consistent with the biochemical data, Compound 1 is a potent inhibitor of cellular RTKs as assessed by analysis of receptor autophosphorylation as measured by enzyme-linked immunosorbent assay. Assays were performed using cell lines (PC-3, HUVEC, and A-172) stimulated with ligands to their respective receptors to induce autophosphorylation (MET, VEGFR2, and AXL) or a cell line (293A) transfected with an expression vector encoding the receptor of interest (MER). Inhibition of endogenous phosphorylated MET by Compound 1 in Hs 746T gastric carcinoma cells was also investigated due to the presence of the skip-splice mutation of exon 14 in the MET gene. This MET exon 14 alteration leads to increased MET stability and oncogenic activation, including constitutive MET phosphorylation. Also this mutation is known to occur in 3% of lung adenocarcinoma patients and to be sensitive to MET-targeted therapies (Frampton et al 2015)."}, "VEGFR2": {"biological_target": "VEGFR2 (Homo sapiens, UniProt P35968)", "sequence (P35968 20-1356)": "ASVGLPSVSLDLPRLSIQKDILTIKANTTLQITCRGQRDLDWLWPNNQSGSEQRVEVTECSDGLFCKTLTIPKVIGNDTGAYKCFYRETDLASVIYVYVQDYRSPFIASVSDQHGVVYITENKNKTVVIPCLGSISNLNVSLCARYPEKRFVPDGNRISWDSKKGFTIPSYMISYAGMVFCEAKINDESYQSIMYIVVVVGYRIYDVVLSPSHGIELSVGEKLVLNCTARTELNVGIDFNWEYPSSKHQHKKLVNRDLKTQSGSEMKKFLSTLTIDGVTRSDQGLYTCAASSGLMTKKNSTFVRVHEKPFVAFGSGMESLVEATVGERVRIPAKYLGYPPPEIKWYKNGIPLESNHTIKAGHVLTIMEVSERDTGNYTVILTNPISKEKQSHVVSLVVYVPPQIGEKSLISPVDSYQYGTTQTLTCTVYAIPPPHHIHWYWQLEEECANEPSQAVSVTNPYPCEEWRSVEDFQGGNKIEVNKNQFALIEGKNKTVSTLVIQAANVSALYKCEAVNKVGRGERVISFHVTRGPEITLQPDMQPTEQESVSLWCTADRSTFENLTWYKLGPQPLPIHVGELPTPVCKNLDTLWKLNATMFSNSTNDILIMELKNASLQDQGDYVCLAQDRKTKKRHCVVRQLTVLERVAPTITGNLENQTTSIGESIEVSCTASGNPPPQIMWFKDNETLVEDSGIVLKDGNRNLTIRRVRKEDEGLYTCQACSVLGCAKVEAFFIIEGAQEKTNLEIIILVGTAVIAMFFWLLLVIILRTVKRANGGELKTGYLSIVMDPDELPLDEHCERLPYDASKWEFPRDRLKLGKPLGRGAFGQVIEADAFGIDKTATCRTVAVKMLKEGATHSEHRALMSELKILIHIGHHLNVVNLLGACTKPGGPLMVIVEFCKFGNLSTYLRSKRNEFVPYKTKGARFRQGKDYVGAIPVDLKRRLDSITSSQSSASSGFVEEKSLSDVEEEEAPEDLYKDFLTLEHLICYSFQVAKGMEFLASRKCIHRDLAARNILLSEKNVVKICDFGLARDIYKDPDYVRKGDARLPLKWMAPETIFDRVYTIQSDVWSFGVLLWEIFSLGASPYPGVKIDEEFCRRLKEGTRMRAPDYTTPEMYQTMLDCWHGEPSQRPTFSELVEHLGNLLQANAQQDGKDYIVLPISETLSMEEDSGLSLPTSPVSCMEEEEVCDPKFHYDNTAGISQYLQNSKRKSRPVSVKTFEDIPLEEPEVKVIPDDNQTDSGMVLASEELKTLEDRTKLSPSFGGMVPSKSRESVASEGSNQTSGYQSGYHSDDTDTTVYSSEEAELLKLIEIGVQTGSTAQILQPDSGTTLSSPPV", "experiment": "RTK autophosphorylation ELISA, HUVEC stimulated with VEGF165", "format": "cell-based", "parameters": "cell lines (PC-3, HUVEC, and A-172) stimulated with ligands to their respective receptors to induce autophosphorylation (MET, VEGFR2, and AXL); endogenous in cells; host or cells: HUVEC", "details": "VEGFR2, ligand VEGF165; read-out: Cellular IC50", "method": "as §2"}}, "note": "Values joined by “and” are separate entries in the source; they are usually repeats but may differ in a detail not shown here. Identical values can stand only once."}
{"smiles": "CNC(=O)c1cc2c(Oc3ccc(NC(=O)C4(C(=O)Nc5ccc(F)cc5)CC4)cc3)ccnc2cc1OC", "note": "[Compound 1, 1-N′-(4-Fluorophenvl)-1-N-[4-[7-methoxy-6-(methylcarbamovl)quinolin-4-yl]oxyphenyl]cyclopropane-1,1-dicarboxamide]", "values": [{"measurement": "TGI (%)", "setting": "SNU-5; 3 mg/kg qd × 14 oral, p-value 0.0052", "value": 54.2, "unit": "%"}, {"measurement": "TGI (%)", "setting": "SNU-5; 10 mg/kg qd × 14 oral, p-value <0.0001", "value": 94.7, "unit": "%"}, {"measurement": "bioavailability", "setting": "[1]; beagle, dog, plasma, po, 0.2-0.6 mg/kg, read-out: Oral absolute bioavailability", "value": "47 to 70", "unit": "%"}, {"measurement": "half-life", "setting": "[1]; beagle, dog, plasma, after oral administration, read-out: terminal phase half-life (t1/2, z)", "value": "1 to 3", "unit": "h"}, {"measurement": "Tmax", "setting": "[1]; beagle, dog, plasma, single oral dose, read-out: Median time to maximum plasma concentration (Tmax)", "value": "2 to 3", "unit": "h"}, {"measurement": "clearance", "setting": "[1]; beagle, dog, plasma, single-dose IV 0.2-0.6 mg/kg, read-out: mean plasma clearance (CL) (converted)", "value": 6.33, "unit": "mL/min/kg"}, {"measurement": "half-life", "setting": "[1]; beagle, dog, plasma, single-dose IV, read-out: mean plasma t1/2, z (converted)", "value": "~4", "unit": "h"}, {"measurement": "Vd", "setting": "[1]; beagle, dog, plasma, single-dose IV, read-out: mean volume of distribution at steady-state (Vss)", "value": 1.98, "unit": "L/kg"}, {"measurement": "plasma clearance in dogs relative to rats", "setting": "[1]; higher in dogs than in rats", "value": "approximately 16 fold"}, {"measurement": "increase of exposure (Cmax and AUC0-inf) with dose", "setting": "[1]; single oral doses 0.2-0.6 mg/kg", "value": "approximately dose proportionally"}, {"measurement": "mean accumulation ratio for AUC0-24", "setting": "[2]; 18 mg/kg dose level", "value": 0.874}, {"measurement": "mean accumulation ratio for Cmax", "setting": "[2]; 18 mg/kg dose level", "value": 0.891}, {"measurement": "mean accumulation ratio for AUC0-24", "setting": "[2]; 2 and 6 mg/kg dose levels", "value": "1.57-3.38"}, {"measurement": "mean accumulation ratio for Cmax", "setting": "[2]; 2 and 6 mg/kg dose levels", "value": "1.67-4.75"}, {"measurement": "Sex differences in mean Cmax and AUC0-24 values", "setting": "[2]; 28-day study", "value": "less than 2 fold"}, {"measurement": "half-life", "setting": "[2]; both sexes, dog, plasma, Day 1", "value": "4.57 to 6.29", "unit": "h"}, {"measurement": "half-life", "setting": "[2]; both sexes, dog, plasma, Day 28", "value": "3.96 to 5.23", "unit": "h"}, {"measurement": "Tmax", "setting": "[2]; both sexes, dog, plasma, oral gavage 2, 6 and 18 mg/kg, Days 1 and 28, read-out: median Tmax", "value": 2, "unit": "h"}, {"measurement": "EC50", "setting": "CYP2C9; human, fresh primary human hepatocytes, mRNA induction, read-out: half-maximal effective concentration (EC50)", "value": 1710, "unit": "nM"}, {"measurement": "maximal induction effect (Emax)", "setting": "CYP2C9; mRNA, 0.1-100 μM", "value": 5, "unit": "fold"}, {"measurement": "projected apparent CL (CL/F) after oral administration in human", "setting": "[3]; assuming rat CL=23.4 mL/hr/kg and F=70%", "value": 0.557, "unit": "mL/min/kg"}, {"measurement": "projected apparent CL (CL/F) after oral administration in human", "setting": "[3]; for a 70-kg human", "value": 2338, "unit": "mL/h"}, {"measurement": "projected human exposure lower than exposure at HNSTD in rats", "setting": "[3]; proposed clinical starting dose of 10 mg daily vs 10 mg/kg qd in rats", "value": 54, "unit": "fold"}, {"measurement": "M1/M2 Ratio, Fold Change Relative to DMSO (n = 2)", "setting": "[4]; 2 uM", "value": "1.3 ± 2.6 and 1.7 (2×) and 1.0 ± 2.6 and 2.2 ± 1.1"}, {"measurement": "M1/M2 Ratio, Fold Change Relative to DMSO (n = 2)", "setting": "[4]; 4 uM", "value": "3.6 ± 1.2 and 4.1 and 3.3 and 3.7 ± 1.2 and 3.4 ± 1.4"}, {"measurement": "M1/M2 Ratio, Fold Change Relative to DMSO (n = 2)", "setting": "[4]; 6 uM", "value": "3.5 ± 1.2 and 4.0 and 4.6 and 4.5 ± 1.0 and 4.6 ± 1.7"}, {"measurement": "IC50", "setting": "MET", "value": 15, "unit": "nM"}, {"measurement": "IC50", "setting": "VEGFR2", "value": 1.5, "unit": "nM"}]}
